Consider four molecules from US4562183A, “Perfluoro-1-azabicyclo(5,3,0)decane compounds useful as blood substitutes” (I.S.C. Chemicals Limited, priority 1982, dated 1985).

The nature of data set [1]: Solubilities at 25° C. of perfluoro-1-azabicyclo(5,3,0)decane in solvents. In kind it is physicochemical. An excerpt: Solubility of perfluoro-1-
azabicyclo(5,3,0)decane in […]

Data set [2] can be described thus: Stability of emulsion with yolk phospholipids. In kind it is physicochemical. Conditions: heating at 100° C. for 30 minutes and storage at 4° C. and 25° C. for 2 weeks. Here is the method:
In order to evaluate the feasibility of emulsification, ABCD was emulsified with yolk phospholipids by using a Manton-Gaulin homogenizer and the stability to heating at 100° C. for 30 minutes and storage at 4° C. and 25° C. for 2 weeks were examined.

Data set [3] is described as follows: Retention in body organs with time (gas chromatography). The data set is classed as in vivo, rats. Conditions: rat, 0.32 mL/100 g, 0.32 ml. fluorocarbon per 100 gm body weight; for concentration at 120 h: 5 Days; for concentration at 168 h: 7 Days (Av. of 2); for concentration at 240 h: 10 Days; for concentration at 504 h: 21 Days. Here is the method:
4. RETENTION OF PERFLUORO-1-AZABICYCLO(5,3,0)DECANE BODY ORGANS WITH TIME
Gas chromatography results--rats injected with emulsion of ABCD (0.32 ml. fluorocarbon per 100 gm body weight). The following residual fluorocarbon concentrations were observed. (In mg. fluorocarbon/gm tissue).

Data set [4] is described as follows: Oxygen solubility in fluorocarbon. The data set is classed as physicochemical. Conditions: oxygen-saturated at 20° C.; corrected for vapour pressure of fluorocarbon. On the procedure: A portion of 20 ml. of ABCD was degassed by boiling and cooled to 20° C. while being bubbled with oxygen gas. The oxygen-saturated liquid was then degassed under vacuum and the gas evolved was collected and its volume measured at a known temperature and pressure. After allowing for the vapour pressure of the fluorocarbon, the solubility of oxygen was calculated to be in the range 45±10 mls of O2 (at 760 mm Hg & 0° C.) per 100 ml. of fluorocarbon. The solubility of oxygen in ABCD is thus adequate to permit the use of this fluorocarbon as an oxygen carrier for medical use.

Data set [5] can be described thus: Emulsion forming capacity with Pluronic F68, standing overnight. Conditions: for Emulsification time to form emulsion: Pluronic F68 in deionised water, high speed mixer; for Separation (creaming) of the emulsion: standing at room temperature overnight, Pluronic F68. The data set is classed as physicochemical. On the procedure: To 10 ml. of perfluoro-1-azabicyclo(5,3,0)decane (ABCD) was added 10 ml. of solution made by dissolving 8.0 g of a non-ionic, polyoxyethylene-polyoxypropylene surfactant ('Pluronic F68', RTM) in 220 ml. of deionised water. The mixture was emulsified for a few minutes using a high speed mixer to form an emulsion having the appearance of diluted milk.
In a comparison test, an emulsion was formed using perfluorodecalin. An emulsion of similar appearance to that formed with ABCD required about 10 minutes emulsification.

A short description of data set [6]: Excretion rate from the organs. In kind it is in vivo, rats. Here is the method: (§1) ABCD was evaluated as candidate for an artificial blood substitute from the aspects of toxicity, feasibility of emulsification and excretion rate from the organs.
A short description of data set [7]: Toxicity: weight gain of rats administered emulsion. In kind it is in vivo. Conditions: Wistar strain male rats, ABCD emulsion, 4 g/kg as ABCD. Here is the method:
as §1

A short description of data set [8]: Base stability of fluorination product. The data set is classed as physicochemical.
The conditions of data set [9]: aqueous media; cited from earlier work.
For data set [10] the following is noted: in vivo; cited from earlier work.
Where [11] appears, read: heart, read-out: Residual fluorocarbon concentration, heart.
Setting [12] is: kidney, read-out: Residual fluorocarbon concentration, kidney.
Where [13] appears, read: liver, read-out: Residual fluorocarbon concentration, liver.
[14] abbreviates: lung, read-out: Residual fluorocarbon concentration, lung.
Setting [15] is: spleen, read-out: Residual fluorocarbon concentration, spleen.

Like-named read-outs stand apart in the source and are kept apart here.

`FC1(F)N2C(F)(F)C(F)(F)C(F)(F)C2(F)C(F)(F)C(F)(F)C(F)(F)C1(F)F` (stereo not shown) [ABCD, perfluoro-1-azabicyclo(5,3,0)decane]: the Solubility in acetone in [1] (acetone) is recorded as 6.84 g in 100 g solvent. Besides, the Solubility in hexane result in data set [1] (hexane) is reported as “miscible”. Further, the Solubility in methanol in data set [1] (methanol) amounted to 1.36 g in 100 g solvent. Also, the Solubility in trichloro-trifluoroethane result in data set [1] (trichloro-trifluoroethane) is recorded as “miscible”. In addition, the Solubility in water entry in [1] (water) is recorded as “hardly soluble”. In addition, the Stability of emulsion result in [2] is on record as “acceptably stable”. Besides, the concentration at 120 h amounted to 130000 ng/g in [3] (setting [11]); 170000 ng/g in data set [3] (setting [12]); 1.18e+07 ng/g in data set [3] (setting [13]); 560000 ng/g in data set [3] (setting [14]); 4.35e+07 ng/g in data set [3] (setting [15]). In addition, the concentration at 168 h came to 450000 ng/g in data set [3] (setting [11]); 100000 ng/g in [3] (setting [12]); 6.73e+06 ng/g in [3] (setting [13]); 100000 ng/g in data set [3] (setting [14]); 2.23e+07 ng/g in data set [3] (setting [15]). Moreover, the concentration at 240 h in data set [3] (setting [11]) turned out to be 260000 ng/g; in [3] (setting [12]) it was 190000 ng/g; in data set [3] (setting [13]), 2.51e+06 ng/g; in [3] (setting [14]), 160000 ng/g; in [3] (setting [15]), 1.2e+08 ng/g. The concentration at 336 h in data set [3] (14 Days (* not Av. of 2), spleen, read-out: Residual fluorocarbon concentration, spleen) was determined as 3.69e+06 ng/g; in data set [3] (14 Days (Av. of 2), heart, read-out: Residual fluorocarbon concentration, heart) it was 180000 ng/g; in data set [3] (14 Days (Av. of 2), kidney, read-out: Residual fluorocarbon concentration, kidney) it was 150000 ng/g; in data set [3] (14 Days (Av. of 2), liver, read-out: Residual fluorocarbon concentration, liver) it was 380000 ng/g; in data set [3] (14 Days (Av. of 2), lung, read-out: Residual fluorocarbon concentration, lung), 150000 ng/g. The concentration at 504 h in data set [3] (setting [11]) came out at 160000 ng/g; in [3] (setting [12]), 160000 ng/g; in data set [3] (setting [13]), 40000 ng/g; in [3] (setting [14]) it was 150000 ng/g; in data set [3] (setting [15]), 1.12e+06 ng/g. In addition, in [4], the Solubility of oxygen is 45±10 mls of O2 (at 760 mm Hg & 0° C.) per 100 ml. of fluorocarbon. Also, the “Emulsification time to form emulsion” value in data set [5] was “a few minutes”. In addition, the “Separation (creaming) of the emulsion” value in data set [5] is recorded as “minor amount of separation ('creaming')”. In addition, in data set [6] (2 weeks after injection), the “Amount detected in all organs” value was “only trace amounts”. The “Elimination from the organs” value in data set [6] (after injection) is listed as “very rapidly eliminated from the organs”. The Weight gain result in [7] is given as “gained weight favourably”.
In the case of `FC(F)(F)C1(F)N2C(F)(F)C(F)(F)C(F)(F)C2(F)C(F)(F)C(F)(F)C(F)(F)C1(F)F` (stereo not shown) [perfluoro-1-aza-2-methyl(5,3,0)decane], in data set [8], the Stability to base entry is reported as “base-stable”.
For the molecule `FC1(F)C(F)(F)C(F)(F)C2(F)C(F)(F)C(F)(F)C(F)(F)C(F)(F)C2(F)C1(F)F` (stereo not shown) [perfluorodecalin, reference compound], in data set [5], the “Emulsification time to form emulsion” value is “about 10 minutes” and the “Separation (creaming) of the emulsion” value is “pronounced creaming”. Besides, the Emulsion stability entry in data set [9] is “does not easily give a stable emulsion in aqueous media”.
In the case of `FC(F)(F)C(F)(F)C(F)(F)N(C(F)(F)C(F)(F)C(F)(F)F)C(F)(F)C(F)(F)C(F)(F)F` [perfluorotripropylamine], the “Retention time in the body” value in [10] is “longer retention time in the body”. Besides, the Emulsion stability result in [9] is “gives a more stable emulsion than perfluorodecalin”.
